The values below come from patent US20080048155A1, “Filter and Cyanine Compound” (priority 2004, published 2008).

Holding throughout (format): physicochemical
Data set [1] is described as follows: Heat resistance stability test of filter (oven 80° C., 7 days). The note with it: for Residual Ratio: (Absorbance after the test/Absorbance before the test)×100, 80° C., 7 days; for Absorbance (OD value) Initial: acryl resin filter on polyester film, at maximum absorption wavelength, before 80° C. test; for Absorbance (OD value) After 7 days: acryl resin filter, oven at 80° C. for 7 days. The protocol: (§1) In this connection, absorbance (OD value) was measured using a spectrophotometer UV-3150 made by Shimadzu Corp. When measurement was carried out using a solvent, the same solvent was measured as a blank, and when measurement was carried out using a filter, a filter which had the same composition except that only the cyanine compound was not contained was produced and measured as a blank.
In 18.8 parts of MEK, 0.4 parts of Compound 31 obtained in the above Example 5 was dissolved. To this solution, 80 parts of a resin solution prepared by dissolving 25 parts of an acryl-based resin (DIANAL (RTM) BR-80, made by Mitsubishi Rayon Co., Ltd.) in 75 parts of MEK was mixed to obtain a solution for coating. This solution was coated on a polyester film so that thickness becomes 2 to 4 μm, dried at 80° C. to obtain an optical filter of the present invention. This filter was used as a filter for absorbing near infrared rays.
The resultant filter for absorbing near infrared rays was left to stand in an oven at 80° C. for 7 days. Then absorbance (OD value) of the filter was measured with a spectrophotometer before and after the test, and residual ratio of the coloring matter was determined from the change of the absorbance (OD value) at the maximum absorption wavelength. Residual ratio=(Absorbance after the test/Absorbance before the test)×100

Data set [2] in a line: Wet heat resistance stability test of filter (85° C., 85% RH, 3 days). As to conditions: for Residual Ratio: absorbance after/before ×100, 85° C. and 85% RH, 3 days; for Absorbance (OD value) After 3 days / Absorbance (OD value) Initial: acryl resin filter; for Absorbance (OD value) After 3 days: 85° C. and 85% RH for 3 days; for Absorbance (OD value) Initial: before 85° C./85% RH test. The protocol:
as §1
The filter obtained in Example 12 (the filter using Compound 31) was left to stand in a high temperature constant humidity chamber at 85° C. and 85% RH for 3 days. Absorbance (OD value) of the filter was measured with a spectrophotometer before and after the test, and residual ratio of the coloring matter was determined from the change of the absorbance (OD value) at the maximum absorption wavelength.
The filters obtained in Comparative Examples 1 to 6 were left to stand in a high temperature constant humidity chamber at 85° C. and 85% RH for 3 days. Then absorbances (OD values) of the filters were measured with a spectrophotometer before and after the test, and residual ratios of the coloring matters were determined from the changes of the absorbances (OD values) at each maximum absorption wavelength. The test using the filter obtained in Comparative Example 1 is termed as Comparative Example 7, the test using the filter obtained in Comparative Example 2 is termed as Comparative Example 8, the test using the filter obtained in Comparative Example 3 is termed as Comparative Example 9, the test using the filter obtained in Comparative Example 4 is termed as Comparative Example 10, the test using the filter obtained in Comparative Example 5 is termed as Comparative Example 11, and the test using the filter obtained in Comparative Example 6 is termed as Comparative Example 12.

Data set [3] in a line: Solubility to various solvents at room temperature. The note with it: % by mass. The text has this: Further, solubility to various types of solvents at room temperature was as follows.
Further, solubility to various kinds of solvents at room temperature was as follows.

Data set [4] can be described thus: Decomposition temperature by thermogravimetric-differential thermal analysis (TG-DTA). As to conditions: temperature at which weight loss initiated. The procedure:
Into 25 parts of acetic acid, 14.9 parts of 4,5-benzo-1-(2-methoxyethyl)-3,3-dimethyl-2-methyleneindoline and 4.5 parts of 2-chloro-1-formyl-3-hydroxymethylenecyclohexene were charged and the reaction mixture was heated up to 60° C. 5.1 parts of acetic anhydride was added dropwise thereto at 50° C. to 60° C. over 1 hour, and then stirred at 50° C. to 60° C. for further 2 hours to complete the condensation reaction. The reaction liquid was cooled to room temperature, and then filtered under aspiration to remove insoluble impurity. Subsequently, a solution of 8.8 parts of potassium(bis-trifluoromethanesulfonyl)imide in 40 parts of water was added dropwise to the reaction liquid. The precipitated crystal was filtered under aspiration, recrystallized from 70 parts of N,N-dimethylformamide, washed with 5 parts of methanol, then with water, and dried, to obtain 19.1 parts of the aforementioned Compound 31. Spectroscopic characteristics and decomposition temperature of the resultant Compound 31 were as follows. In this connection, decomposition temperature was shown by a value of the temperature at which weight loss initiated in a thermogravimetric-differential thermal analysis (TG-DTA).

Consider `COCCN1/C(=C/C=C/C=C/C=C/C2=[N+](CCOC)c3ccccc3C2(C)C)C(C)(C)c2ccccc21` [Compound 30], for which, in data set [1], the “Residual Ratio” value was 89.7%, the “Absorbance (OD value) Initial” value is listed as 0.83 and the “Absorbance (OD value) After 7 days” value is reported as 0.74. Moreover, in data set [2], the “Residual Ratio” value was 97.3%, the “Absorbance (OD value) After 3 days” value worked out at 0.80 and the “Absorbance (OD value) Initial” value amounted to 0.83.

With `COCCN1/C(=C/C=C2\CCCC(/C=C/C3=[N+](CCOC)c4ccc5ccccc5c4C3(C)C)=C2Cl)C(C)(C)c2c1ccc1ccccc21` [Compound 31], in data set [1], the “Residual Ratio” value is 80.9%, the “Absorbance (OD value) Initial” value stood at 0.65 and the “Absorbance (OD value) After 7 days” value was found to be 0.52. Besides, in data set [2], the “Residual Ratio” value was found to be 90.9%, the “Absorbance (OD value) After 3 days” value worked out at 0.59 and the “Absorbance (OD value) Initial” value is 0.65. In data set [3], the “Solubility, Cyclopentanone” value was determined as 14.5%; the “Solubility, Dichloromethane” value turned out to be 19.2%; the “Solubility, Methyl ethyl ketone (MEK)” value is reported as 2.9%; the “Solubility, N,N-dimethylformamide” value was found to be 24.6%. Further, in data set [4], the Decomposition temperature was determined as 242.9 °C.

As to `COCCN1/C(=C/C=C2\CCC(/C=C/C3=[N+](CCOC)c4ccc5ccccc5c4C3(C)C)=C2Cl)C(C)(C)c2c1ccc1ccccc21` [Compound 46], in data set [3], the “Solubility, Cyclohexanone” value worked out at 0.8%; the “Solubility, Cyclopentanone” value worked out at 3.1%; the “Solubility, Methyl ethyl ketone (MEK)” value turned out to be 0.2%; the “Solubility, N,N-dimethylformamide” value amounted to 3.4%. The molecule further showed a Decomposition temperature in data set [4] of 213.0 °C.

Turning to `CCCCOCCN1/C(=C/C=C2\CCC(/C=C/C3=[N+](CCOCCCC)c4ccc5ccccc5c4C3(C)C)=C2Cl)C(C)(C)c2c1ccc1ccccc21` [Compound 47], in data set [3], the “Solubility, Cyclohexanone” value was determined as 2.6%; the “Solubility, Cyclopentanone” value is 0.9%; the “Solubility, Methyl ethyl ketone (MEK)” value came out at 1.6%; the “Solubility, N,N-dimethylformamide” value came to 4.5%. In data set [4], this molecule displayed a Decomposition temperature of 186.0 °C.

Regarding `COCCN1/C(=C/C=C2\CCCC(/C=C/C3=[N+](CCOC)c4ccccc4C3(C)C)=C2Cl)C(C)(C)c2ccccc21` [Compound A], in data set [1], the “Residual Ratio” value worked out at 87.2%, the “Absorbance (OD value) Initial” value is recorded as 0.83 and the “Absorbance (OD value) After 7 days” value worked out at 0.72. In data set [2], the “Residual Ratio” value turned out to be 99.9%, the “Absorbance (OD value) After 3 days” value turned out to be 0.82 and the “Absorbance (OD value) Initial” value is 0.83. In addition, the Decomposition temperature in data set [4] stood at 224.6 °C.

On to `CN1/C(=C/C=C2\CCCC(/C=C/C3=[N+](C)c4ccc5ccccc5c4C3(C)C)=C2Cl)C(C)(C)c2c1ccc1ccccc21` [Compound B], for which, in data set [1], the “Residual Ratio” value is 85.6%, the “Absorbance (OD value) Initial” value stood at 0.67 and the “Absorbance (OD value) After 7 days” value came to 0.57. Besides, in data set [2], the “Residual Ratio” value was 93.6%, the “Absorbance (OD value) After 3 days” value was 0.63 and the “Absorbance (OD value) Initial” value is 0.67.

Take `CN1/C(=C/C=C/C=C/C=C/C2=[N+](C)c3ccc4ccccc4c3C2(C)C)C(C)(C)c2c1ccc1ccccc21` [Compound C]: in data set [1], the “Residual Ratio” value is on record as 80.9%, the “Absorbance (OD value) Initial” value was 0.75 and the “Absorbance (OD value) After 7 days” value amounted to 0.61. Also, in data set [2], the “Residual Ratio” value worked out at 89.7%, the “Absorbance (OD value) After 3 days” value came out at 0.67 and the “Absorbance (OD value) Initial” value was found to be 0.75.
